Test results reported in patent publication US6514999B1, “Use of an agent for treating the symptoms of Parkinson's disease” (priority 1998, dated 2003).

Test system: symptoms of Parkinson's disease
Assay: Application to parkinsonian patients for treating the symptoms of Parkinson's disease
Format: in vivo, human (parkinsonian patients)
Details: compared within the anilide group of local anesthetics (lidocaine, bupivacaine, butanilicaine, etidocaine, tolycaine)
Description: The inventive use has the effect, upon application to parkinsonian patients, that the specific symptoms of Parkinson's disease clearly subside, the resulting improved condition of the patient continuing for several hours and even days. In particular, a clear improvement of disease-specific symptoms was obtained with the inventive use […] “local anesthetic of the anilide group” essential to the inventive use belongs in general to the local anesthetics of different structure, the local anesthetics of the anilide group and their derivatives being preferred for treatment as a subgroup of said local anesthetics. Examples of said subgroup are not only mepivacaine but also lidocaine, bupivacaine, butanilicaine, etidocaine and tolycaine. […] One supposition is that the small molecular size of mepivacaine provides an increased probability of crossing the blood-brain barrier. Mepivacaine is in addition lipophilic, i.e. lipid-loving, and tends to attach to fat molecules. It is remarkable in this connection that neurons are usually embedded in fat and an accumulation or concentration of mepivacaine in fat will presumably also have effects on the nervous pathways running through fatty tissue. Levodopa also has strong lipophilia, like mepivacaine, so that this connection might also provide a mechanism of action. […]

Structure (SMILES): Cc1cccc(C)c1NC(=O)C1CCCCN1C (stereo not shown) [mepivacaine]
- effectiveness in treating patients with Parkinson's disease: most effective
